Results from paper PMC7055022, “A novel TLR7 agonist as adjuvant to stimulate high quality HBsAg-specific immune responses in an HBV mouse model” (Journal of Translational Medicine, 2020).

Target: T1, human TLR7 (hTLR7) (Homo sapiens, UniProt Q9NYK1)
T1 sequence (Q9NYK1 27-1049): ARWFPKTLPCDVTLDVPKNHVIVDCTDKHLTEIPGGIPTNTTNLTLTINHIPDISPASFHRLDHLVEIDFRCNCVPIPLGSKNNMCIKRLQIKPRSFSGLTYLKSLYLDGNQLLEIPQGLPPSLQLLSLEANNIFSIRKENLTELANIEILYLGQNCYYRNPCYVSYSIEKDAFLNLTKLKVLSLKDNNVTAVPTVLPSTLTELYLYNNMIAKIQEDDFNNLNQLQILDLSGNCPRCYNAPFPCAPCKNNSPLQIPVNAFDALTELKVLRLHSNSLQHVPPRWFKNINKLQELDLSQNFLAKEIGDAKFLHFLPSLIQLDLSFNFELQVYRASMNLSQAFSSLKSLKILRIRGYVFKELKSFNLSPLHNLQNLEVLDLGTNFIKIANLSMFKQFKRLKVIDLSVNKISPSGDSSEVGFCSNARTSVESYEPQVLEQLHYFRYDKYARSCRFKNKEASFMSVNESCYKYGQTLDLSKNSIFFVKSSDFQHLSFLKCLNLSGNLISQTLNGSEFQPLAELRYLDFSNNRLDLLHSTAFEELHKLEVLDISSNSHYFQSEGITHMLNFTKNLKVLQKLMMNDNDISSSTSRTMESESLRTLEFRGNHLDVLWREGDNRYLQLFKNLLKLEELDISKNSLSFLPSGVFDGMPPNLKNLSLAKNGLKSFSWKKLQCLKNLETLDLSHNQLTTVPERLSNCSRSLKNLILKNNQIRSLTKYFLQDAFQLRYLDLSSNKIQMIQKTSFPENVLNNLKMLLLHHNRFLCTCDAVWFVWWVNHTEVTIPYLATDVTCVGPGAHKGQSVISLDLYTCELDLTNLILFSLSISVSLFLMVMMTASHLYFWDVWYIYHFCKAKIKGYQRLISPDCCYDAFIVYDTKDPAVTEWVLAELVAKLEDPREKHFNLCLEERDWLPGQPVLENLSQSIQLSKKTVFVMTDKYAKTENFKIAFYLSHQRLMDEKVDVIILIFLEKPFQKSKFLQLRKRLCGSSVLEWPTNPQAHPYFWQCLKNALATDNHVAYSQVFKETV
Experiment: HEK-Blue hTLR7 SEAP/NF-κB reporter assay (agonist; inactive in hTLR8 cells)
Type: cell-based

**Q.** C=C(CC)C(=O)c1ccc(OCC(=O)NCc2ccc(Cn3c(O)nc4c(N)nc(OCCOC)nc43)cc2)c(Cl)c1Cl [compound 4, N-(4-((6-amino-8-hydroxy-2-(2-methoxyethoxy)-9H-purin-9-yl)methyl)benzyl)-2-(2,3-dichloro-4-(2-methylenebutanoyl)phenoxy)acetamide] was tested. Which “HEK-Blue hTLR7 SEAP/NF-κB reporter assay (agonist; inactive in hTLR8 cells)” value did it give?
**A.** T7-EA induced more potent SEAP reaction than T7 in HEK-Blue hTLR7 reporter cells
